Data: patent publication US11787812B2, “Substituted pyrazolo[4,3-d]pyrimidines and imidazo[5,1 -f][1,2,4]triazines as androgen receptor and phosphodiesterase dual inhibitors” (ILDONG PHARMACEUTICAL CO., LTD., priority 2020, dated 2023)
pIC50: −log10 of the molar value. Read-outs that look alike come from different tables or passages of the source.

Key:
human PDE-5A1 = human PDE-5A1 (Homo sapiens (Human), UniProt O76074); test: Human PDE-5A1 inhibition assay (fluorescence polarization, FAM-cGMP); type: biochemical; details: human PDE5A1, 100 nM FAM-cGMP, 60 minutes room temperature
Excerpt: This example illustrates the in vitro inhibition of human PDE-5A1 by exemplary compounds of this disclosure (e.g., as described herein).
Sildenafil citrate (Catalog no. LKT-S3313, Axxora, San Diego, CA), Vardenafil hydrochloride trihydrate (Catalog no. SML2103, Sigma-Aldrich, St. Louis, MO), PDE Assay Buffer (Catalog no. 60393, BPS bioscience, San Diego, CA), PDE Binding Agent (Catalog no. 60390, BPS bioscience, San Diego, CA) and PDE Binding Agent Diluent (cGMP, Catalog no. 60392, BPS bioscience, San Diego, CA) were used for assays. Test compounds were supplied by Ildong Pharmaceuticals Co., Ltd.
The serial dilution of the compounds was first performed in 100% DMSO with the highest concentration at 1 mM and 0.1 mM. Each intermediate compound dilution (in 100% DMSO) will then get directly diluted 10× fold into assay buffer for 10% DMSO and 5 μL of the dilution was added to a 50 μL reaction so that the final concentration of DMSO is 1% in all reactions.
The enzymatic reactions were conducted at room temperature for 60 minutes in a 50 μL mixture containing PDE assay buffer, 100 nM FAM-cGMP, a PDE enzyme (Table 2) and the test compounds.
After enzymatic reaction, 100 μL of a binding solution (1:100 dilution of the binding agent with the binding agent diluent) was added to each reaction and the reaction was performed at room temperature for 60 minutes.
Fluorescence intensity was measured at excitation of 485 nm and an emission of 528 nm using a Tecan Infinite M1000 microplate reader.
PDE activity assays were performed in duplicate at each concentration. Fluorescence intensity is converted to fluorescence polarization using the Tecan Magellan6 software. The fluorescence polarization (FPt) in absence of the compound in each data set was defined as 100% activity. In the absence of PDE and the compound, the value fluorescent polarization (FPb) in each data set was defined as 0% activity. The percent activity in the presence of compound was calculated according to Equation 1:
[formula] where FP=the fluorescence polarization in the presence of the compound.
The values of % activity versus a series of compound concentrations were then plotted using non-linear regression analysis of Sigmoidal dose-response curve generated with Equation 2:
[formula] where Y=percent activity, B=minimum percent activity, T=maximum percent activity, X=logarithm of compound, and Hill Slope=slope factor or Hill coefficient. The IC50 value was determined by the concentration causing a half-maximal percent activity. Results

androgen receptor (AR) = androgen receptor (AR) (Homo sapiens (Human), UniProt P10275); test: Androgen receptor (AR) reporter assay, antagonist screen activated by R1881; type: cell-based; details: AR-UAS-bla GripTite 293 cells, antagonist mode, R1881 at EC80
Experimental: The protocols and results of this Example were carried out and obtained by Thermofisher Scientific.
Test compounds were received at 1000× (or greater) of the desired starting concentration in 100% DMSO. If compounds were supplied at greater that 1000× concentration, an initial dilution is made in 100% DMSO to bring the compounds to 1000× concentration. The 1000× test compounds were serially diluted (10 point ½-log increments) in 100% DMSO.
The Substrate Loading Solution consists of three Life Technologies reagents: Solution A (10 mM LiveBLAzer™-FRET B/G Substrate), Solution B and Solution C.
Androgen Receptor (AR)—Antagonist Screen, Activated by R1881
AR-UAS-bla GripTite™ 293 cells were thawed and resuspended in Assay Media (DMEM phenol red free, 2% CD-treated FBS, 0.1 mM NEAA, 1 mM Sodium Pyruvate, 100 U/mL/100 μg/mL Pen/Strep) to a concentration of 312,500 cells/mL. 4 μL of a 10× serial dilution of Cyproterone Acetate (control antagonist starting concentration, 3,160 nM) or compounds are added to appropriate wells of a Poly-D-Lysine assay plate. 32 μL of cell suspension was added to the wells and pre-incubated at 37° C./5% CO2 in a humidified incubator with compounds and control antagonist titration for 30 minutes. 4 μL of 10× control agonist R1881 at the pre-determined EC80 concentration was added to wells containing the control antagonist or compounds. The plate was incubated for 16-24 hours at 37° C./5% CO2 in a humidified incubator. 8 μL of 1 μM Substrate Loading Solution is added to each well and the plate was incubated for 2 hours at room temperature. The plate was read on a fluorescence plate reader (Tecan Safire^2).

Human androgen receptors = Human androgen receptors (Homo sapiens (Human), UniProt P10275, T878A); test: Androgen receptor (AR) radioligand binding assay; details: read-out: AR IC50
Experimental: Methods employed in this study have been adapted from the following literature procedure.
Human androgen receptors obtained from human LNCaP cells are used in modified HEPES buffer pH 7.4. […] Non-specific binding is estimated in the presence of 1 μM testosterone. […] (See, e.g., Traish, A. M et al., Binding of 7α, 17α-dimethyl-19-nortestosterone (Mibolerone) to androgen and progesterone receptors in human and animal tissues. Endocrinology. 118(4): 1327-1333, 1986).
Compounds are screened at 10 μM.
Where presented, IC50 values were determined by a non-linear, least squares regression analysis using MathIQ™ (ID Business Solutions Ltd., UK).

Chain of androgen receptor (AR) (P10275 other isoform, or with tags, fused parts or gaps): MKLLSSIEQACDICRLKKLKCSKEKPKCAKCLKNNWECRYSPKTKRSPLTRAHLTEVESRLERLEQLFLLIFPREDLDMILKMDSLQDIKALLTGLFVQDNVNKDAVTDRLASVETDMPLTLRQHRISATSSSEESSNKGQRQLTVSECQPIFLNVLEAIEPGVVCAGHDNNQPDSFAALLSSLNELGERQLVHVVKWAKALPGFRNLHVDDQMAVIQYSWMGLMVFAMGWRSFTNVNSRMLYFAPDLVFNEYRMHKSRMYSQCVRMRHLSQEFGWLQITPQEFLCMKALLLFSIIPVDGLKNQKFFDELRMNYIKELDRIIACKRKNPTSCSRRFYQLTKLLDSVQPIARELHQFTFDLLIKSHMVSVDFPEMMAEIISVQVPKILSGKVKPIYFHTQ
Chain of Human androgen receptors (P10275 whole entry T878A): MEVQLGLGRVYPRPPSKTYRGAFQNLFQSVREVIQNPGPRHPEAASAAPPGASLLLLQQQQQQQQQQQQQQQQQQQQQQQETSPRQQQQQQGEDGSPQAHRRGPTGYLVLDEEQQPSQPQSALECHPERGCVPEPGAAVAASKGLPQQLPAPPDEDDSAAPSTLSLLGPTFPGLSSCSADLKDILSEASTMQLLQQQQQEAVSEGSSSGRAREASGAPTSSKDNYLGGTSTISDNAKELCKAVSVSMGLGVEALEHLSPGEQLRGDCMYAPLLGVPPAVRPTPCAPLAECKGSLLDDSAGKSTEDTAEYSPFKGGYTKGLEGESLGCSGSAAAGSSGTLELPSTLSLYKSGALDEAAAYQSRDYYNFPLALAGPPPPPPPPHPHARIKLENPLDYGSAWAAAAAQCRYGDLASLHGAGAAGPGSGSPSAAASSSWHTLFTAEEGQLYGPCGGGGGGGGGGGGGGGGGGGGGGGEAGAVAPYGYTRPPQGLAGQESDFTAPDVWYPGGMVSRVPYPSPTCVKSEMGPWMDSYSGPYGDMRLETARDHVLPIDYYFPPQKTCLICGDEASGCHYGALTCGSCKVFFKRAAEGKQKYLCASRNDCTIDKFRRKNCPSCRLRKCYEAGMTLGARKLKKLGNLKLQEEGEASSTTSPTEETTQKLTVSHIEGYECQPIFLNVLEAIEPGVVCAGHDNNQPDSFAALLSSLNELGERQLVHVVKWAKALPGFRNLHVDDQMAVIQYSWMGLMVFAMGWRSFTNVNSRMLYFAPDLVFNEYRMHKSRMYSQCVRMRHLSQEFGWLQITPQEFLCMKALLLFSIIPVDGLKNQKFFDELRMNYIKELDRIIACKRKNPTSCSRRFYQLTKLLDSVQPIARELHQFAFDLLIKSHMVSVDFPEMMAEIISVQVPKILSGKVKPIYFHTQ

| SMILES | IC50 (human PDE-5A1) | other results |
| --- | --- | --- |
| CCCc1nn(C)c2c(=O)[nH]c(-c3cc(S(=O)(=O)Nc4ccc(C#N)c(C(F)(F)F)c4)ccc3OCC)nc12 [Compound 1, N-(4-cyano-3-(trifluoromethyl)phenyl)-4-ethoxy-3-(1-methyl-7-oxo-3-propyl-6,7-dihydro-1H-pyrazolo[4,3-d]pyrimidin-5-yl)benzenesulfonamide] | ≤ 10 nM |  |
| CCCc1nn(C)c2c(=O)[nH]c(-c3cc(SC[C@](C)(O)C(=O)Nc4ccc(C#N)c(C(F)(F)F)c4)ccc3OCC)nc12 [Compound 2, (R)-N-(4-cyano-3-(trifluoromethyl)phenyl)-3-((4-ethoxy-3-(1-methyl-7-oxo-3-propyl-6,7-dihydro-1H-pyrazolo[4,3-d]pyrimidin-5-yl)phenyl)thio)-2-hydroxy-2-methylpropanamide] | 10 to 100 nM |  |
| CCCc1nn(C)c2c(=O)[nH]c(-c3cc(S(=O)(=O)C[C@](C)(O)C(=O)Nc4ccc(C#N)c(C(F)(F)F)c4)ccc3OCC)nc12 [Compound 3, (R)-N-(4-cyano-3-(trifluoromethyl)phenyl)-3-((4-ethoxy-3-(1-methyl-7-oxo-3-propyl-6,7-dihydro-1H-pyrazolo[4,3-d]pyrimidin-5-yl)phenyl)sulfonyl)-2-hydroxy-2-methylpropanamide] | 10 to 100 nM |  |
| CCCc1nn(C)c2c(=O)[nH]c(-c3cc(S(=O)(=O)NC[C@@](C)(O)C(=O)Nc4ccc(C#N)c(C(F)(F)F)c4)ccc3OCC)nc12 [Compound 4, (R)-N-(4-cyano-3-(trifluoromethyl)phenyl)-3-((4-ethoxy-3-(1-methyl-7-oxo-3-propyl-6,7-dihydro-1H-pyrazolo[4,3-d]pyrimidin-5-yl)phenyl)sulfonamido)-2-hydroxy-2-methylpropanamide] | 10 to 100 nM |  |
| CCCc1nn(C)c2c(=O)[nH]c(-c3cc(S(=O)(=O)Nc4cnc(C#N)c(C(F)(F)F)c4)ccc3OCC)nc12 [Compound 5, N-(6-cyano-5-(trifluoromethyl)pyridin-3-yl)-4-ethoxy-3-(1-methyl-7-oxo-3-propyl-6,7-dihydro-1H-pyrazolo[4,3-d]pyrimidin-5-yl)benzenesulfonamide] | ≤ 10 nM |  |
| CCCc1nc(C)c2c(=O)[nH]c(-c3cc(S(=O)(=O)Nc4cnc(C#N)c(C(F)(F)F)c4)ccc3OCC)nn12 [Compound 6, N-(6-cyano-5-(trifluoromethyl)pyridin-3-yl)-4-ethoxy-3-(5-methyl-4-oxo-7-propyl-3,4-dihydroimidazo[5,1-f][1,2,4]triazin-2-yl)benzenesulfonamide] | ≤ 10 nM |  |
| CCCc1nc(C)c2c(=O)[nH]c(-c3cc(S(=O)(=O)Nc4ccc(C#N)c(C(F)(F)F)c4)ccc3OCC)nn12 [Compound 7, N-(4-cyano-3-(trifluoromethyl)phenyl)-4-ethoxy-3-(5-methyl-4-oxo-7-propyl-3,4-dihydroimidazo[5,1-f][1,2,4]triazin-2-yl)benzenesulfonamide] | ≤ 10 nM |  |
| CCCc1nn(C)c2c(=O)[nH]c(-c3cc(S(=O)(=O)Nc4ccc(C#N)c(Cl)c4)ccc3OCC)nc12 [Compound 8, N-(3-chloro-4-cyanophenyl)-4-ethoxy-3-(1-methyl-7-oxo-3-propyl-6,7-dihydro-1H-pyrazolo[4,3-d]pyrimidin-5-yl)benzenesulfonamide] | ≤ 10 nM |  |
| CCCc1nc(C)c2c(=O)[nH]c(-c3cc(S(=O)(=O)Nc4ccc(C#N)c(Cl)c4)ccc3OCC)nn12 [Compound 9, N-(3-chloro-4-cyanophenyl)-4-ethoxy-3-(5-methyl-4-oxo-7-propyl-3,4-dihydroimidazo[5,1-f][1,2,4]triazin-2-yl)benzenesulfonamide] | ≤ 10 nM |  |
| CCCc1nc(C)c2c(=O)[nH]c(-c3cc(S(=O)(=O)N[C@H]4C[C@H](C(O)C(F)(F)F)N(c5ccc(C#N)c(C(F)(F)F)c5)C4)ccc3OCC)nn12 (stereo partly drawn) [Compound 10, N-((3S,5R)-1-(4-cyano-3-(trifluoromethyl)phenyl)-5-(2,2,2-trifluoro-1-hydroxyethyl)pyrrolidin-3-yl)-4-ethoxy-3-(5-methyl-4-oxo-7-propyl-3,4-dihydroimidazo[5,1-f][1,2,4]triazin-2-yl)benzenesulfonamide] | ≤ 10 nM |  |
| CCCc1nn(C)c2c(=O)[nH]c(-c3cc(S(=O)(=O)N[C@@H](C)Cn4ccc(-c5ccc(C#N)c(Cl)c5)n4)ccc3OCC)nc12 [Compound 11, (S)-N-(1-(3-(3-chloro-4-cyanophenyl)-1H-pyrazol-1-yl)propan-2-yl)-4-ethoxy-3-(1-methyl-7-oxo-3-propyl-6,7-dihydro-1H-pyrazolo[4,3-d]pyrimidin-5-yl)benzenesulfonamide] | > 100 nM |  |
| CCCc1nn(C)c2c(=O)[nH]c(-c3cc(N4C(=S)N(c5ccc(C#N)c(C(F)(F)F)c5)C(=O)C4(C)C)ccc3OCC)nc12 [Compound 13, 4-(3-(4-ethoxy-3-(1-methyl-7-oxo-3-propyl-6,7-dihydro-1H-pyrazolo[4,3-d]pyrimidin-5-yl)phenyl)-4,4-dimethyl-5-oxo-2-thioxoimidazolidin-1-yl)-2-(Influoromethyl)benzonilrile] | > 100 nM | pIC50 (androgen receptor (AR)): 6.00 to 6.30; pIC50 (Human androgen receptors; receptors from human LNCaP cells, 0.5 nM [3H]Methyltrienolone, 20 hours at 4° C.): < 6.70 |
| CCCc1nc(C)c2c(=O)[nH]c(-c3cc(N4C(=S)N(c5cnc(C#N)c(C(F)(F)F)c5)C(=O)C45CCC5)ccc3OCC)nn12 [Compound 24, 5-(5-(4-ethoxy-3-(5-methyl-4-oxo-7-propyl-3,4-dihydroimidazo[5,1-f][1,2,4]triazin-2-yl)phenyl)-8-oxo-6-thioxo-5,7-diazaspiro[3.4]octan-7-yl)-3-(trifluoromethyl)picolinonitrile] | ≤ 10 nM | pIC50 (Human androgen receptors): 6.70 to 7.30 |
| CCCc1nc(C)c2c(=O)[nH]c(-c3cc(N4CC(=O)N(c5ccc(C#N)c(C(F)(F)F)c5)C4=S)ccc3OCC)nn12 [Compound 25, 4-(3-(4-ethoxy-3-(5-methyl-4-oxo-7-propyl-3,4-dihydroimidazo[5,1-f][1,2,4]triazin-2-yl)phenyl)-5-oxo-2-thioxoimidazolidin-1-yl)-2-(trifluoromethyl)benzonitrile] | ≤ 10 nM | pIC50 (androgen receptor (AR)): < 7.00 |
| CCCc1nc(C)c2c(=O)[nH]c(-c3cc(NC(=O)Nc4ccc(C#N)c(C(F)(F)F)c4)ccc3OCC)nn12 [Compound 27, 1-(4-cyano-3-(trifluoromethyl)phenyl)-3-(4-ethoxy-3-(5-methyl-4-oxo-7-propyl-3,4-dihydroimidazo[5,1-f][1,2,4]triazin-2-yl)phenyl)urea] | ≤ 10 nM | pIC50 (androgen receptor (AR)): < 7.00 |
| CCCc1nc(C)c2c(=O)[nH]c(-c3cc(NC(=S)Nc4ccc(C#N)c(C(F)(F)F)c4)ccc3OCC)nn12 [Compound 28, 1-(4-cyano-3-(trifluoromethyl)phenyl)-3-(4-ethoxy-3-(5-methyl-4-oxo-7-propyl-3,4-dihydroimidazo [5,1-f][1,2,4]triazin-2-yl)phenyl)thiourea] | ≤ 10 nM | pIC50 (androgen receptor (AR)): < 7.00 |
